Counter-ions that a name gives are not always drawn.
Experiments:
[1] = test system: dermal Arthus reaction (Type III hypersensitivity); test: reverse passive Arthus assay (Carter and Krause); assay type: in vivo, rats (male Sprague-Dawley); conditions: 100 mg/kg, oral, 30 min before intradermal AntiB.S.A.; lesion after 4 hours; 4 rats per group
Method: Proc. 35, 774 (1976). Each compound was administered orally to a group of four animals. The reserve passive Arthus reaction test in rats is conducted as follows: Male Sprague-Dawley rats weighing approximately 130-160 g. are used, 4 rats per group. All animals are injected intravenously with 0.5 ml. 0.075% Bovine Serum Albumin (B.S.A.) +2% Evans Blue solution. Each rat then receives an oral dose of drug; one drug is administered per group. Thirty minutes subsequent to drug dosing, each animal is injected intradermally with 0.05 ml. 1.44% AntiB.S.A. into the dorsal skin. Four hours later the animals are sacrificed, the dorsal skin reflexed, and the lesion excised. Two perpendicular diameters of each lesion are measured. The average diameters of the lesions from the treated groups are compared with the average diameters from the control group to determine any drug effect. […] Proc. 35, 774 (1976)]. Each compound was administered orally to a group of four animals.

[2] = test system: carrageenin pleurisy (accumulation of exudate volume and leukocytes); test: carrageenin pleurisy assay (modification of Vinegar et al.); assay type: in vivo; conditions: Dose 100 (unit not given); for % Inhibition, Volume exudates: exudate volume; for % Inhibition, Cells: leukocyte accumulation
Text: The anti-inflammatory activity of these compounds was established by using a modification of the carrageenin pleurisy assay described by Vinegar et al. Proc. Soc. Exp. Biol. Med. 143:711 (1973).

SMILES	% Inhibition of lesion of dermal Arthus reaction [1]	% Inhibition, Volume exudates [2] [%]	% Inhibition, Cells [2] [%]
Cl.N#CCCN(N)c1ncco1 [3-[1-(2-Oxazolyl)hydrazino]propanenitrile hydrochloride]	42%	32	21
Cc1nc(N(N)CCC#N)oc1C.Cl [3-[1-(4,5-dimethyl-2-oxazolyl)-hydrazino]propanenitrile hydrochloride]	38%	–	–
N#CCCN(N)c1nc(-c2ccccc2)c(-c2ccccc2)o1 [3-[1-(4,5-diphenyl-2-oxazolylhydrazino)]propanenitrile hydrochloride]	40%	–	–
Cl.N#CCCN(N)c1nc(-c2ccccc2)co1 [3-[1-(4-Phenyl-2-oxazolyl)-hydrazino]propanenitrile hydrochloride]	59%	–	–
CCCCC1C(=O)N(c2ccccc2)N(c2ccccc2)C1=O [Phenylbutazone, reference compound]	Inactive	59	13
